Data published in patent publication US11753407B2, “Compounds for treating spinal muscular atrophy” (PTC Therapeutics, Inc., priority 2012, dated 2023).

How the values were obtained:
[1] = test system: SMN2 minigene mRNA (SMN2-A minigene) in HEK293H cells; assay: SMN2 minigene mRNA splicing RT-qPCR assay in cultured cells; type: cell-based, human; details: Homo sapiens, HEK293-H; concentration increasing full length SMN2 mRNA 1.5-fold relative to vehicle-treated cells; HEK293H cells with SMN2-A minigene, 24 hours, 7-point concentration data; read-out: EC1.5x for production of full length SMN2 mRNA
Method in brief: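 Stable SMN2-A minigene HEK293H; cpd 7-pt 3.16-fold series, 200× in DMSO, 24 h, 37 °C, n=2. Lysates → multiplex RT-qPCR (minigene FL + GAPDH), efficiency-corrected ΔΔCt vs vehicle. EC1.5× = 1.5-fold FL mRNA gain.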

[2] = test system: Smn protein in SMA patient fibroblast cells (GM03813); assay: Smn protein assay in cultured cells (SMN HTRF); type: cell-based, human; details: SMA patient fibroblast cells, 48 hours; for EC1.5x for Smn protein expression: 7-point concentration curve, SMN HTRF, concentration producing 1.5 times Smn protein vs DMSO vehicle control; for maximum fold (Fold) increase of Smn protein: 7-point concentration data, fold relative to vehicle control
Method in brief: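 Fibroblasts, SMA patient; 5,000 cells/well; 7-pt curve, 3.16-fold serial dilution; 48 h, 37 °C, 5% CO2; RIPA lysis 1 h RT; anti-SMN d2 + kryptate overnight RT; HTRF 665/620 nm; fold vs DMSO; EC1.5×, max fold.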

Row | SMILES | melting point [°C] | EC (1.5-fold increase) [1] [µM] | EC1.5x for Smn protein expression [2] | maximum fold (Fold) increase of Smn protein [2]
1 | COc1ccc(-c2ccc3nc(N4CC[C@@H](N(C)C)C4)cc(=O)n3c2)cc1F [Compound 277, 2-[(3R)-3-(dimethylamino)pyrrolidin-1-yl]-7-(3-fluoro-4-methoxyphenyl)-4H-pyrido[1,2-a]pyrimidin-4-one] | 167 to 170 | 1 to 3 |  | *** (a fold increase between >1.35 and ≤1.5 is indicated by three stars (***))
2 | COc1ccc(-c2ccc3nc(N4CC[C@H](N(C)C)C4)cc(=O)n3c2)cc1F [Compound 278, 2-[(3S)-3-(dimethylamino)pyrrolidin-1-yl]-7-(3-fluoro-4-methoxyphenyl)-4H-pyrido[1,2-a]pyrimidin-4-one] | 167 to 169 | 1 to 3 |  | ** (a fold increase between >1.2 and ≤1.35 is indicated by two stars (**))
3 | COc1ccc(-c2cc(=O)n3cc(N4C[C@H]5CN(CCO)C[C@H]5C4)ccc3n2)cc1F [Compound 279, 2-(3-fluoro-4-methoxyphenyl)-7-[(3aR,6aS)-5-(2-hydroxyethyl)hexahydropyrrolo[3,4-c]pyrrol-2(1H)-yl]-4H-pyrido[1,2-a]pyrimidin-4-one] | 180 to 186 | 0.1 to 0.3 |  | ** (a fold increase between >1.2 and ≤1.35 is indicated by two stars (**))
4 | COc1ccc(-c2cc(=O)n3cc(N4C[C@@H]5CN(C(C)C)C[C@@H]5C4)ccc3n2)cc1F [Compound 281, 2-(3-fluoro-4-methoxyphenyl)-7-[(3aR,6aS)-5-(propan-2-yl)hexahydropyrrolo[3,4-c]pyrrol-2(1H)-yl]-4H-pyrido[1,2-a]pyrimidin-4-one] | 189 to 192 | 0.1 to 0.3 |  | ** (a fold increase between >1.2 and ≤1.35 is indicated by two stars (**))
5 | Cc1cn2cc(-c3cc(=O)n4cc(N5C[C@@H](C)N[C@@H](C)C5)ccc4n3)cc(Cl)c2n1 [Compound 288, 2-(8-chloro-2-methylimidazo[1,2-a]pyridin-6-yl)-7-[(3R,5S)-3,5-dimethylpiperazin-1-yl]-4H-pyrido[1,2-a]pyrimidin-4-one] | 289 to 295 | < 0.1 | **** (an EC1.5x≤0.3 μM is indicated by four stars (****)) | ***** (a fold increase >1.65 is indicated by five stars (*****))
6 | Cc1cn2cc(-c3cc(=O)n4cc(N5CCCN(C)CC5)ccc4n3)cc(Cl)c2n1 [Compound 289, 2-(8-chloro-2-methylimidazo[1,2-a]pyridin-6-yl)-7-(4-methyl-1,4-diazepan-1-yl)-4H-pyrido[1,2-a]pyrimidin-4-one] | 239 to 244 | < 0.1 | **** (an EC1.5x≤0.3 μM is indicated by four stars (****)) | **** (a fold increase between >1.5 and ≤1.65 is indicated by four stars (****))
7 | Cc1cn2cc(-c3cc(=O)n4cc(N5CCN6CCC[C@@H]6C5)ccc4n3)cc(Cl)c2n1 [Compound 292, 2-(8-chloro-2-methylimidazo[1,2-a]pyridin-6-yl)-7-[(8aR)-hexahydropyrrolo[1,2-a]pyrazin-2(1H)-yl]-4H-pyrido[1,2-a]pyrimidin-4-one] | 274 to 280 | < 0.1 | **** (an EC1.5x≤0.3 μM is indicated by four stars (****)) | **** (a fold increase between >1.5 and ≤1.65 is indicated by four stars (****))
8 | Cc1cn2cc(-c3cc(=O)n4cc(N5CCN6CCC[C@H]6C5)ccc4n3)cc(Cl)c2n1 [Compound 293, 2-(8-chloro-2-methylimidazo[1,2-a]pyridin-6-yl)-7-[(8aS)-hexahydropyrrolo[1,2-a]pyrazin-2(1H)-yl]-4H-pyrido[1,2-a]pyrimidin-4-one] | 269 to 275 | < 0.1 | **** (an EC1.5x≤0.3 μM is indicated by four stars (****)) | ***** (a fold increase >1.65 is indicated by five stars (*****))
9 | Cc1cn2cc(-c3cc(=O)n4cc(N5CCN(C)[C@@H](C)C5)ccc4n3)cc(F)c2n1 [Compound 295, 7-[(3S)-3,4-dimethylpiperazin-1-yl]-2-(8-fluoro-2-methylimidazo[1,2-a]pyridin-6-yl)-4H-pyrido[1,2-a]pyrimidin-4-one] | 269 to 275 | < 0.1 | **** (an EC1.5x≤0.3 μM is indicated by four stars (****)) | **** (a fold increase between >1.5 and ≤1.65 is indicated by four stars (****))

More lines, main results first:

Row | melting point [°C] | SMILES | EC (1.5-fold increase) [1] [µM] | EC1.5x for Smn protein expression [2] | maximum fold (Fold) increase of Smn protein [2]
10 | 294 to 297 | Cc1cn2cc(-c3cc(=O)n4cc(N5CC[C@H](N(C)C)C5)ccc4n3)cc(F)c2n1 [Compound 275, 7-[(3S)-3-(dimethylamino)pyrrolidin-1-yl]-2-(8-fluoro-2-methylimidazo[1,2-a]pyridin-6-yl)-4H-pyrido[1,2-a]pyrimidin-4-one] | < 0.1 | **** (an EC1.5x≤0.3 μM is indicated by four stars (****)) | ***** (a fold increase >1.65 is indicated by five stars (*****))
11 | 207 to 211 | COc1ccc(-c2cc(=O)n3cc(N4C[C@@H]5CCN(C)[C@@H]5C4)ccc3n2)cc1F [Compound 280, 2-(3-fluoro-4-methoxyphenyl)-7-[(3aS,6aS)-1-methylhexahydropyrrolo[3,4-b]pyrrol-5(1H)-yl]-4H-pyrido[1,2-a]pyrimidin-4-one] | 1 to 3 |  | * (A maximum fold increase of ≤1.2 is indicated by one star (*))
12 | 188 to 191 | COc1ccc(-c2cc(=O)n3cc(N4CC[C@@H](N(C)C)C4)ccc3n2)cc1F [Compound 282, 7-[(3R)-3-(dimethylamino)pyrrolidin-1-yl]-2-(3-fluoro-4-methoxyphenyl)-4H-pyrido[1,2-a]pyrimidin-4-one] | 0.3 to 1 |  | ** (a fold increase between >1.2 and ≤1.35 is indicated by two stars (**))
13 | 200 to 202 | Cc1nc2ccc(-c3cc(=O)n4cc(N5CCNC(C)(C)C5)ccc4n3)cc2s1 [Compound 283, 7-(3,3-dimethylpiperazin-1-yl)-2-(2-methyl-1,3-benzothiazol-6-yl)-4H-pyrido[1,2-a]pyrimidin-4-one] | < 0.1 | **** (an EC1.5x≤0.3 μM is indicated by four stars (****)) | **** (a fold increase between >1.5 and ≤1.65 is indicated by four stars (****))
14 | 254 to 256 | Cc1nc2ccc(-c3cc(=O)n4cc(N5CCN6CCC[C@@H]6C5)ccc4n3)cc2s1 [Compound 284, 7-[(8aR)-hexahydropyrrolo[1,2-a]pyrazin-2(1H)-yl]-2-(2-methyl-1,3-benzothiazol-6-yl)-4H-pyrido[1,2-a]pyrimidin-4-one] | 0.3 to 1 | *** (an EC1.5× between >0.3 μM and ≤1 μM is indicated by three stars (***)) | **** (a fold increase between >1.5 and ≤1.65 is indicated by four stars (****))
15 | 218 to 220 | Cc1nc2ccc(-c3cc(=O)n4cc(OC5CCNCC5)ccc4n3)cc2s1 [Compound 286, 2-(2-methyl-1,3-benzothiazol-6-yl)-7-(piperidin-4-yloxy)-4H-pyrido[1,2-a]pyrimidin-4-one] | 0.3 to 1 | *** (an EC1.5× between >0.3 μM and ≤1 μM is indicated by three stars (***)) | **** (a fold increase between >1.5 and ≤1.65 is indicated by four stars (****))
16 | 245 to 251 | Cc1cn2cc(-c3cc(=O)n4cc(N5CCNCC5)ccc4n3)cc(Cl)c2n1 [Compound 287, 2-(8-chloro-2-methylimidazo[1,2-a]pyridin-6-yl)-7-(piperazin-1-yl)-4H-pyrido[1,2-a]pyrimidin-4-one] | < 0.1 | **** (an EC1.5x≤0.3 μM is indicated by four stars (****)) | ***** (a fold increase >1.65 is indicated by five stars (*****))
17 | 236 to 239 | Cc1cn2cc(-c3cc(=O)n4cc(N5CCN[C@H](C)C5)ccc4n3)cc(Cl)c2n1 [Compound 290, 2-(8-chloro-2-methylimidazo[1,2-a]pyridin-6-yl)-7-[(3R)-3-methylpiperazin-1-yl]-4H-pyrido[1,2-a]pyrimidin-4-one] | < 0.1 | **** (an EC1.5x≤0.3 μM is indicated by four stars (****)) | ***** (a fold increase >1.65 is indicated by five stars (*****))
18 | 236 to 239 | Cc1cn2cc(-c3cc(=O)n4cc(N5CCN[C@@H](C)C5)ccc4n3)cc(Cl)c2n1 [Compound 291, 2-(8-chloro-2-methylimidazo[1,2-a]pyridin-6-yl)-7-[(3S)-3-methylpiperazin-1-yl]-4H-pyrido[1,2-a]pyrimidin-4-one] | < 0.1 | **** (an EC1.5x≤0.3 μM is indicated by four stars (****)) | ***** (a fold increase >1.65 is indicated by five stars (*****))
